According to patent publication US7858621B2 (Amorepacific Corporation, priority 2006, dated 2010):

Molecular target: T1, vanilloid receptor (Rattus norvegicus, UniProt O35433)
T1 construct: DRG nerve cells from the primary culture of 2 days were equilibrated; endogenous in cells; host or cells: primary culture of dorsal root ganglion neurons from neonatal SD rats
Assay: 45Ca influx test in cultured neonatal rat DRG neurons, inhibition of capsaicin response
Type: cell-based
Conditions: neonatal rat DRG neurons, capsaicin 0.5 μM, 45Ca influx; read-out: Antagonist Calcium Uptake Test (IC50)
Protocol: 1) Separation of Spinal Dorsal Root Ganglia (DRG) in Newborn Rats and Primary Culture Thereof
Neonatal (2-3 day old or younger than 2-3 day old) SD rats were put in ice for 5 minutes to anesthetize and disinfected with 70% ethanol. […] The DRG were incubated sequentially at 37° C. for 30 mins in 200 U/ml collagenase and 2.5 mg/ml trypsin, separately. The ganglia were washed twice with DME/F12 medium supplemented with 10% horse serum, triturated through a fire-polished Pasteur pipette, filtered through Nitex 80 membrane to obtain single cell suspension and the suspension was washed once more. This was subjected to centrifugation, then resuspended in cell culture medium at certain level of cell density. As the cell culture medium, DME/F12 medium supplemented with 10% horse serum was diluted with identical medium conditioned by C6 glioma cells 2 days on a confluent monolayer (1:1), and NGF (Nerve Growth Factor) was added to adjust 200 ng/ml as final concentration. After the cells were grown 2 days in medium where cytosine arabinoside (Ara-C, 100 μM) was added to kill dividing nonneuronal cells, medium was changed to one without Ara-C. The resuspended cells were plated at a density of 1500-2000 neurons/well onto Terasaki plates previously coated with 10 μg/ml poly-D-ornithine.
2) ^45Ca Influx Experiments
DRG nerve cells from the primary culture of 2 days were equilibrated by washing 4 times with HEPES (10 mM, pH 7.4)-buffered Ca^2+, Mg^2+-free HBSS (H-HBSS). The solution in each well was removed from the individual well. Medium containing the test compound plus capsaicin (final concentration 0.5 μM) and ^45Ca (final concentration 10 μCi/ml) in H-HBSS was added to each well and incubated at room temperature for 10 mins. Terasaki plates were washed five times with H-HBSS and dried at room temperature. To each well, 0.3% SDS (10 μl) was added to elute ^45Ca. After the addition of scintillation cocktail of into each well, the amount of ^45Ca influx into neuron was measured by counting radioactivity.

T1 sequence (O35433 whole entry): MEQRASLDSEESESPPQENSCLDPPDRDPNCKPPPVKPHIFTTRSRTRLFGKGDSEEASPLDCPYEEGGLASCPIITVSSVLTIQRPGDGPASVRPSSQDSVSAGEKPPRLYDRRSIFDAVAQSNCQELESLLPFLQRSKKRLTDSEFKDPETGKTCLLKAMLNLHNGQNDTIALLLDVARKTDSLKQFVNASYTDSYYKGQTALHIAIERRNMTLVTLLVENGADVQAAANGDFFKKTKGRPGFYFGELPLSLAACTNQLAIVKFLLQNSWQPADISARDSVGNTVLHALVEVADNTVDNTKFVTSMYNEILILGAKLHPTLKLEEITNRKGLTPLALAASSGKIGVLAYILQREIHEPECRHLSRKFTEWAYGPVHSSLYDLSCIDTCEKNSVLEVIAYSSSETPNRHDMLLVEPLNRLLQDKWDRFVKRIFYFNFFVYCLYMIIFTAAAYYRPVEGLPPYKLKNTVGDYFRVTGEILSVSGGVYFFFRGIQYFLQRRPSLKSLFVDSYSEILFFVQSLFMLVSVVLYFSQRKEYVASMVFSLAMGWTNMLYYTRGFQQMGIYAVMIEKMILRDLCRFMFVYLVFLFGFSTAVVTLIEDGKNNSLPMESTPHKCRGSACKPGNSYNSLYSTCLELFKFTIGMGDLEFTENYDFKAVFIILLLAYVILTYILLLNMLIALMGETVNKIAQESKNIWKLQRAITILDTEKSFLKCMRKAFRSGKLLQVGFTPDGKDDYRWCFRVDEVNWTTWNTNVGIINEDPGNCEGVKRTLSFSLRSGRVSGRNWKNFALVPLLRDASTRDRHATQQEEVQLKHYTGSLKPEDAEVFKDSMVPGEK

IC50 | Compound
190 nM | CCC(C)c1nc(C(F)(F)F)ccc1/C=C/C(=O)NCc1cc(F)c(NS(C)(=O)=O)c(F)c1 (centres unmarked) [Example 235, N-(3,5-Difluoro-4-methanesulfonylamino-benzyl)-3-(2-sec-butyl-6-trifluoromethyl-pyridin-3-yl)-acrylamide]
420 nM | Cc1cc(CNC(=O)/C=C/c2ccc(C(F)(F)F)nc2N2CCOCC2)cc(F)c1NS(C)(=O)=O [Example 8, N-(3-Fluoro-4-methanesulfonylamino-5-methyl-benzyl)-3-(2-morpholin-4-yl-6-trifluoromethyl-pyridin-3-yl)-acrylamide]
92 nM | CCCCCc1nc(C(F)(F)F)ccc1/C=C/C(=O)NCc1cc(F)c(NS(C)(=O)=O)c(F)c1 [Example 199, N-(3,5-Difluoro-4-methanesulfonylamino-benzyl)-3-(2-pentyl-6-trifluoromethyl)-pyridin-3-yl-acrylamide]
840 nM | CCCCc1nc(C(F)(F)F)ccc1C#CC(=O)NCc1cc(C)c(NS(C)(=O)=O)c(F)c1 [Example 273, 3-(2-Butyl-6-trifluoromethyl-pyridin-3-yl)-propynoic acid 3-fluoro-4-methanesulfonylamino-5-methyl-benzylamide]
9200 nM | COc1cc(C(F)(F)F)c(/C=C/C(=O)NCc2ccc(NS(C)(=O)=O)c(F)c2)cn1 [Example 43, N-(3-Fluoro-4-methanesulfonylaminobenzyl)-3-(6-methoxy-4-trifluoromethylpyridin-3-yl)acrylamide]
77 nM | C#Cc1cc(CNC(=O)/C=C/c2ccc(C(F)(F)F)nc2NC(C)CC)cc(F)c1NS(C)(=O)=O (centres unmarked) [Example 117, 3-(2-sec-Butylamino-6-trifluoromethyl-pyridin-3-yl)-N-(3-ethynyl-5-fluoro-4-methanesulfonylamino-benzyl)-acrylamide]
73 nM | Cc1cc(CNC(=O)/C=C/c2ccc(C(F)(F)F)nc2NC(C)C)ccc1NS(C)(=O)=O [Example 219, 3-(2-Isopropylamino-6-trifluoromethyl-pyridin-3-yl)-N-(4-methanesulfonylamino-3-methyl-benzyl)-acrylamide]
71 nM | Cc1cc(CNC(=O)/C=C/c2ccc(C(F)(F)F)nc2NC(C)C)cc(F)c1NS(C)(=O)=O [Example 220, N-(3-Fluoro-4-methanesulfonylamino-5-methyl-benzyl)-3-(2-isopropylamino-6-trifluoromethyl-pyridin-3-yl)-acrylamide]
2400 nM | CCOCc1nc(C(F)(F)F)ccc1/C=C/C(=O)NCc1ccc(NS(C)(=O)=O)c(F)c1 [Example 160, N-(3-Fluoro-4-methanesulfonylamino-benzyl)-3-(2-ethoxymethyl-6-trifluoromethyl-pyridin-3-yl)-acrylamide]
1100 nM | C#Cc1cc(CNC(=O)/C=C/c2ccc(C(F)(F)F)nc2C#CCOC)cc(F)c1NS(C)(=O)=O [Example 153, N-(3-Ethynyl-5-fluoro-4-methanesulfonylamino-benzyl)-3-[2-(3-methoxy-prop-1-ynyl)-6-trifluoromethyl-pyridin-3-yl]-acrylamide]
47 nM | CCC(C)Nc1nc(C(F)(F)F)ccc1/C=C/C(=O)NCc1cc(F)c(NS(C)(=O)=O)c(F)c1 (centres unmarked) [Example 129, 3-(2-sec-Butylamino-6-trifluoromethyl-pyridin-3-yl)-N-(3,5-difluoro-4-methanesulfonylamino-benzyl)-acrylamide]
220 nM | Cc1cc(CNC(=O)/C=C/c2ccc(C(F)(F)F)nc2NCc2ccccc2)ccc1NS(C)(=O)=O [Example 191, 3-(2-Benzylamino-6-trifluoromethyl-pyridin-3-yl)-N-(4-methanesulfonylamino-3-methyl-benzyl)-acrylamide]
350 nM | CCCCc1nc(C(F)(F)F)ccc1C#CC(=O)NCc1cc(F)c(NS(C)(=O)=O)c(F)c1 [Example 261, 3-(2-Butyl-6-trifluoromethyl-pyridin-3-yl)-propynoic acid 3,5-difluoro-4-methanesulfonylamino-benzylamide]
120 nM | CS(=O)(=O)Nc1c(F)cc(CNC(=O)/C=C/c2ccc(C(F)(F)F)nc2CCc2ccccc2)cc1F [Example 203, N-(3,5-Difluoro-4-methanesulfonylamino-benzyl)-3-(2-phenethyl-6-trifluoromethyl-pyridin-3-yl)-acrylamide]
> 10000 nM | CC(C)(C)c1ccc(OCC(=O)NCc2ccc(NS(C)(=O)=O)c(F)c2)cn1 [Example 29, 2-(6-tert-Butyl-pyridin-3-yloxy)-N-(3-fluoro-4-methanesulfonylamino-benzyl)-acetamide]
780 nM | CS(=O)(=O)Nc1ccc(CNC(=O)/C=C/c2ccc(C(F)(F)F)nc2-c2cccc(F)c2)cc1F [Example 179, N-(3-Fluoro-4-methanesulfonylamino-benzyl)-3-[2-(3-fluoro-phenyl)-6-trifluoromethyl-pyridin-3-yl]-acrylamide]
360 nM | C#Cc1cc(CNC(=O)/C=C/c2ccc(C(F)(F)F)nc2OCC2CC2)cc(F)c1NS(C)(=O)=O [Example 93, 3-(2-Cyclopropylmethoxy-6-trifluoromethyl-pyridin-3-yl)-N-(3-ethynyl-5-fluoro-4-methanesulfonylamino-benzyl)-acrylamide]
65 nM | C#Cc1cc(CNC(=O)/C=C/c2ccc(C(F)(F)F)nc2CCCCC)cc(F)c1NS(C)(=O)=O [Example 197, N-(3-Ethynyl-5-fluoro-4-methanesulfonylamino-benzyl)-3-(2-pentyl-6-trifluoromethyl)-pyridin-3-yl-acrylamide]
28 nM | CCCCNc1nc(C(F)(F)F)ccc1/C=C/C(=O)N[C@H](C)c1ccc(NS(C)(=O)=O)c(F)c1 [Example 213, (R)—N-[1-(3-Fluoro-4-methanesulfonylamino-phenyl)-ethyl]-3-(2-butylamino)-6-trifluoromethyl-pyridin-3-yl-acrylamide]
> 10000 nM | C#Cc1cc(CNC(=O)COc2ccc(C(C)(C)C)nc2)cc(F)c1NS(C)(=O)=O [Examples 34]
49 nM | CCCc1nc(C(F)(F)F)ccc1/C=C/C(=O)NCc1ccc(NS(C)(=O)=O)c(C)c1 [Example 208, N-(4-Methanesulfonylamino-3-methyl-benzyl)-3-(2-propyl-6-trifluoromethyl-pyridin-3-yl)-acrylamide]
180 nM | C#Cc1cc(CNC(=O)/C=C/c2ccc(C(F)(F)F)nc2SCC)cc(F)c1NS(C)(=O)=O [Example 171, 3-(2-Ethylthio-6-trifluoromethyl-pyridin-3-yl)-N-(3-ethynyl-5-fluoro-4-methanesulfonylamino-benzyl)-acrylamide]
820 nM | CCOC(=O)C1CCN(c2nc(C(F)(F)F)ccc2/C=C/C(=O)NCc2cc(F)c(NS(C)(=O)=O)c(C#N)c2)CC1 [Example 111, N-(3-Cyano-5-fluoro-4-methansulfonylamino-benzyl)-3-[2-(4-ethoxycarbonyl-piperid-1-yl)-6-trifluoromethyl-pyridin-3-yl]-acrylamide]
1400 nM | C=CS(=O)(=O)Nc1ccc(CNC(=O)/C=C/c2ccc(C(F)(F)F)nc2CC(C)C)cc1 [Example 269, N-(4-Ethenesulfonylamino-benzyl)-3-(2-isobutyl-6-trifluoromethyl-pyridin-3-yl)-acrylamide]
25 nM | C#Cc1cc(CNC(=O)/C=C/c2ccc(C(F)(F)F)nc2NCC)cc(F)c1NS(C)(=O)=O [Example 249, 3-(2-Ethylamino-6-trifluoromethyl-pyridin-3-yl)-N-(3-ethynyl-5-fluoro-4-methanesulfonylamino-benzyl)-acrylamide]
120 nM | CCCNc1nc(C(F)(F)F)ccc1/C=C/C(=O)NCc1cc(F)c(NS(C)(=O)=O)cc1F [Example 248, N-(2,5-Difluoro-4-methanesulfonylamino-benzyl)-3-(2-propylamino-6-trifluoromethyl-pyridin-3-yl)-acrylamide]
130 nM | CC(C)Nc1nc(C(F)(F)F)ccc1/C=C/C(=O)NCc1cc(F)c(NS(C)(=O)=O)c(F)c1 [Example 217, N-(3,5-Difluoro-4-methanesulfonylamino-benzyl)-3-(2-isopropylamino-6-trifluoromethyl-pyridin-3-yl)-acrylamide]
> 3000 nM | CS(=O)(=O)Nc1ccc(CNC(=O)/C=C/c2ccc(C(F)(F)F)nc2Oc2ccccc2)cc1F [Example 132, N-(3-Fluoro-4-methanesulfonylamino-benzyl)-3-(2-phenoxy-6-trifluoromethyl-pyridin-3-yl)-acrylamide]
220 nM | C#Cc1cc(CNC(=O)/C=C/c2ccc(C(F)(F)F)nc2N(CC)CC)cc(F)c1NS(C)(=O)=O [Example 38, 3-(2-Diethylamino-6-trifluoromethyl-pyridin-3-yl)-N-(3-ethynyl-5-fluoro-4-methanesulfonylamino-benzyl)-acrylamide]
